# Reference: US20230085307A1, “PYRIDAZINONE COMPOUND AND HERBICIDE” (NISSAN CHEMICAL CORPORATION, priority 2019, published 2023)
# Tests used:
# [1] = system: wild oat; experiment: Test Example 5: herbicidal effect by foliage application, plastic box (Table 20, symbol I); type: in vivo, wild oat (Avena fatua); conditions: foliage application, 320 g/ha, evaluated three weeks after application
# Method in brief: (§1)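 Foliar spray test: emulsion formulation diluted in water to a set application rate, sprayed onto 14-day-old plants raised in diluvial soil at 25° C to 30° C under glass. Both herbicidal effect and crop effect rated visually three weeks later.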
# [2] = system: late watergrass; experiment: Test Example 2: herbicidal activity, application during weed generation under submerged conditions (Table 17, symbol A); type: in vivo, late watergrass (Echinochloa oryzicola); conditions: AAH 320 g/ha; application during weed generation, submerged conditions
# Method in brief: (§2)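 Wagner pot, alluvial soil, 4 cm flood; mixed sowing of all species; greenhouse 25° C.–30° C. Emulsifiable formulation, water-diluted to predetermined dose, applied to paddy water at 1–2 leaf stage. Effect rated at 3 wk using the earlier test's scoring criteria.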
# [3] = system: Japanese bulrush; experiment: Test Example 1: herbicidal activity, application before weed generation under submerged conditions (Table 16, symbol B); type: in vivo, Japanese bulrush (Schoenoplectus juncoides); conditions: 320 g/ha applied herbicide
# Method in brief: (§3)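 Emulsion formulation, water-diluted to set dose, was put onto the flooded surface (4 cm depth, alluvial soil) the same day weeds were sown and 2.5-leaf rice transplanted. After 3 weeks at 25-30 °C under glass, each species was rated 0 (≤5% kill) to 5 (≥90% kill).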
# [4] = system: blackgrass; experiment: Test Example 5: herbicidal effect by foliage application, plastic box (Table 20, symbol J); type: in vivo, blackgrass (Alopecurus myosuroides); conditions: foliage application, 320 g/ha, evaluated three weeks after application
# Method in brief: as §1
# [5] = system: late watergrass; experiment: Test Example 1: herbicidal activity, application before weed generation under submerged conditions (Table 16, symbol A); type: in vivo, late watergrass (Echinochloa oryzicola); conditions: 320 g/ha applied herbicide
# Method in brief: as §3
# [6] = system: barnyard grass; experiment: Test Example 3: herbicidal effect by foliage application, Wagner pot (Table 18, symbol H); type: in vivo, barnyard grass (Echinochloa crus-galli); conditions: 320 g/ha
# Method in brief: (§4)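 Plants were sown in alluvial soil held under 0.1–0.5 cm standing water and grown 14 days in a greenhouse at 25–30 °C. An emulsifiable formulation, water-diluted to the set dose, was then sprayed onto the foliage, and effects were scored three weeks later using previously defined criteria.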
# [7] = system: green foxtail; experiment: Test Example 5: herbicidal effect by foliage application, plastic box (Table 20, symbol G); type: in vivo, green foxtail (Setaria viridis); conditions: foliage application, 320 g/ha, evaluated three weeks after application
# Method in brief: as §1
# [8] = system: windgrass; experiment: Test Example 4: herbicidal effect by soil treatment (Table 19, symbol L); type: in vivo, windgrass (Apera spica-venti); conditions: 320 g/ha
# Method in brief: (§5)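 Herbicidal effect was rated 3 weeks after treatment, using the scoring criteria of an earlier test. The compound, formulated as an emulsion and diluted in water to a set herbicide amount, had been sprayed uniformly on soil over freshly sown seeds. Growth took place in a greenhouse at 25° C. to 30° C.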
# [9] = system: barnyard grass; experiment: Test Example 5: herbicidal effect by foliage application, plastic box (Table 20, symbol H); type: in vivo, barnyard grass (Echinochloa crus-galli); conditions: foliage application, 320 g/ha, evaluated three weeks after application
# Method in brief: as §1
# [10] = system: Chinese sprangletop; experiment: Test Example 3: herbicidal effect by foliage application, Wagner pot (Table 18, symbol D); type: in vivo, chinese sprangletop (Leptochloa chinensis); conditions: 320 g/ha
# Method in brief: as §4
# [11] = system: persian speedwell; experiment: Test Example 5: herbicidal effect by foliage application, plastic box (Table 20, symbol R); type: in vivo, Persian speedwell (Veronica persica); conditions: foliage application, 320 g/ha, evaluated three weeks after application
# Method in brief: as §1
# [12] = system: southern crabgrass; experiment: Test Example 5: herbicidal effect by foliage application, plastic box (Table 20, symbol F); type: in vivo, southern crabgrass (Digitaria ciliaris); conditions: foliage application, 320 g/ha, evaluated three weeks after application
# Method in brief: as §1
# [13] = system: oval-leafed pondweed; experiment: Test Example 2: herbicidal activity, application during weed generation under submerged conditions (Table 17, symbol C); type: in vivo, oval-leafed pondweed (Monochoria vaginalis); conditions: AAH 320 g/ha; application during weed generation, submerged conditions
# Method in brief: as §2
# [14] = system: Italian ryegrass; experiment: Test Example 4: herbicidal effect by soil treatment (Table 19, symbol K); type: in vivo, Italian ryegrass (Lolium multiflorum); conditions: 320 g/ha
# Method in brief: as §5
# [15] = system: rice flat sedge; experiment: Test Example 3: herbicidal effect by foliage application, Wagner pot (Table 18, symbol E); type: in vivo, rice flat sedge (Cyperus iria); conditions: 320 g/ha
# Method in brief: as §4
# [16] = system: redroot pigweed; experiment: Test Example 4: herbicidal effect by soil treatment (Table 19, symbol N); type: in vivo, redroot pigweed (Amaranthus retroflexus); conditions: 320 g/ha
# Method in brief: as §5
Compound,herbicidal effect on I: wild oat [1],"herbicidal effect rating, A: late watergrass [2]",Herbicidal effect on B: Japanese bulrush (grade 0-5) [3],herbicidal effect on J: blackgrass [4],Herbicidal effect on A: late watergrass (grade 0-5) [5],"herbicidal effect on H (barnyard grass), rating 0-5 [6]",herbicidal effect on G: green foxtail [7],"herbicidal effect rating, L: windgrass [8]",herbicidal effect on H: barnyard grass [9],"herbicidal effect on D (Chinese sprangletop), rating 0-5 [10]",herbicidal effect on R: persian speedwell [11],herbicidal effect on F: southern crabgrass [12],"herbicidal effect rating, C: oval-leafed pondweed [13]","herbicidal effect rating, K: Italian ryegrass [14]","herbicidal effect on E (rice flat sedge), rating 0-5 [15]","herbicidal effect rating, N: redroot pigweed [16]"
CCOc1cc(F)ccc1-c1sc2ccc(F)cc2c1-c1c(O)c(C)nn(C)c1=O [2-084],4 (Herbicidal rate of 70% or more and less than 90%),2 (Herbicidal rate of 20% or more and less than 40%),1 (Herbicidal rate of 5% or more and less than 20%),5 (Herbicidal rate of 90% or more (almost completely withered)),1 (Herbicidal rate of 5% or more and less than 20%),5 (Herbicidal rate of 90% or more (almost completely withered)),5 (Herbicidal rate of 90% or more (almost completely withered)),1 (Herbicidal rate of 5% or more and less than 20%),5 (Herbicidal rate of 90% or more (almost completely withered)),4 (Herbicidal rate of 70% or more and less than 90%),5 (Herbicidal rate of 90% or more (almost completely withered)),4 (Herbicidal rate of 70% or more and less than 90%),3 (Herbicidal rate of 40% or more and less than 70%),3 (Herbicidal rate of 40% or more and less than 70%),5 (Herbicidal rate of 90% or more (almost completely withered)),5 (Herbicidal rate of 90% or more (almost completely withered))
Cc1nn(C)c(=O)c(-c2c(-c3ccc4c(c3)OCCO4)sc3ccc(F)cc23)c1O [2-092],3 (Herbicidal rate of 40% or more and less than 70%),0 (Herbicidal rate of 5% or less (almost no effect)),3 (Herbicidal rate of 40% or more and less than 70%),4 (Herbicidal rate of 70% or more and less than 90%),2 (Herbicidal rate of 20% or more and less than 40%),5 (Herbicidal rate of 90% or more (almost completely withered)),4 (Herbicidal rate of 70% or more and less than 90%),0 (Herbicidal rate of 5% or less (almost no effect)),5 (Herbicidal rate of 90% or more (almost completely withered)),4 (Herbicidal rate of 70% or more and less than 90%),5 (Herbicidal rate of 90% or more (almost completely withered)),4 (Herbicidal rate of 70% or more and less than 90%),4 (Herbicidal rate of 70% or more and less than 90%),1 (Herbicidal rate of 5% or more and less than 20%),5 (Herbicidal rate of 90% or more (almost completely withered)),4 (Herbicidal rate of 70% or more and less than 90%)
